{"source": "patent USRE40198E1", "about": "“Method and device for electrochemical immunoassay of multiple analytes” (Roche Diagnostics Operations, Inc., priority 1998, dated 2008)", "key": {"[1]": {"test_system": "hemoglobin Alc antibody PAB IS (polyclonal, immunosorbent purified)", "assay": "Inhibition of osmium mediator-peptide conjugate current by antibody (enzyme amplified amperometry, palladium electrodes)", "format": "binding, sheep", "conditions": "for Inhibition with Antibody, PAB IS: maximum inhibition", "description": "3. Antibodies for the analytes (HbAlc and HbAO) which react specifically with the N-terminal peptides which have been incorporated into the conjugate are provided by standard methods for producing polyclonal antibodies. In this case, sheep were immunized with carrier proteins to which were conjugated the synthetic peptide sequences for HbAlc and HbA0. Following the appropriate immunization schedule, the sheep were bled, and the antibody isolated from the blood via ion exchange chromatography, followed by immunosorbent purification on a column of the same N-terminal peptide with a different linker.\n(§1) 4. Appropriate stoichiometry of the reaction was determined for the two reactions independently by methods standard for immunoassay development. A solution containing a fixed amount of labeled conjugate was mixed with a solution with varying amounts of antibody, and, following an appropriate incubation period, the amount of free conjugate remaining was measured on the IDA electrode using the procedure described above.\n(§2) Polyclonal DE (ion-exchange) purified sheep antibody is used in the TinaQuant HbAlc assay. IS (immunosorbent) antibody is prepared using standard IS purification methodology. Samples of a monoclonal antibody were also obtained for evaluation. Inhibition curves were performed in solution with all mixing occurring in microcentrifuge tubes. Inhibition curves with the three hemoglobin Alc antibodies (PAB IS, PAB DE, and MAB) were generated by fixing OS-DSG-Alc at 5μM and varying the antibody concentration. […] From the inhibition curves we were able to select reasonable concentrations of antibody for maximum reversal with Alc samples.\n(§3) While these feasibility studies for a HbAlc immunoassay used an enzyme mediated amplification method (Glucdor/PQQ/glucose was used to regenerate reduced mediator after oxidation at the electrode surface providing a higher diffusion controlled current is given by the cottrell equation), they are considered to be indicative of results attainable with the use of IDA electrodes with bipotentiostatic control is most preferred for measuring mediator labeled conjugates in accordance with this invention."}, "HbAlc antibodies": {"test_system": "HbAlc antibodies", "assay": "Inhibition curves of mediator labels, antibody not given", "format": "binding", "method": "as §2\n(§4) Samplers frozen at−20° C. appear to be stable."}, "[2]": {"test_system": "hemoglobin Alc antibodies (PAB IS, PAB DE, MAB)", "assay": "Reversal of antibody inhibition with BSA-Alc polyhaptan", "format": "binding", "description": "Reversal curves were then generated using a series of dilutions ofBAS-Alc-polyhaptan with a−1:1 Alc:BAS. The BAS-Alc acts as our sample and binds to the antibody."}, "[3]": {"assay": "Stability of mediator labels (analytical HPLC, % inhibition values over time)", "format": "physicochemical", "conditions": "for Stability in solution: stored as solution", "method": "as §4"}, "[4]": {"test_system": "hemoglobin Alc antibody PAB DE (polyclonal, ion-exchange purified)", "assay": "Inhibition of osmium mediator-peptide conjugate current by antibody (enzyme amplified amperometry, palladium electrodes)", "format": "binding, sheep", "conditions": "for Inhibition with Antibody, PAB DE: maximum inhibition", "method": "as §1, §2, §3"}, "[5]": {"test_system": "hemoglobin Alc antibody MAB (monoclonal)", "assay": "Inhibition of osmium mediator-peptide conjugate current by antibody (enzyme amplified amperometry, palladium electrodes)", "format": "binding", "conditions": "for Inhibition with Antibody, MAB: maximum inhibition", "method": "as §1, §2, §3"}, "Sheep B<HbAo> antibody": {"test_system": "Sheep B<HbAo> antibody", "assay": "Inhibition of Ao conjugate current by antibody", "format": "binding"}, "Zymed rabbit antibodies": {"test_system": "Zymed rabbit antibodies", "assay": "Inhibition of Ao conjugate current by antibody", "format": "binding"}, "HbAo antibody": {"test_system": "HbAo antibody", "assay": "Reversal of antibody inhibition with AoHB-peptide #1", "format": "binding"}, "glucose oxidase": {"biological_target": "glucose oxidase (Aspergillus niger, UniProt P13006)", "sequence (P13006 17-605, species assumed)": "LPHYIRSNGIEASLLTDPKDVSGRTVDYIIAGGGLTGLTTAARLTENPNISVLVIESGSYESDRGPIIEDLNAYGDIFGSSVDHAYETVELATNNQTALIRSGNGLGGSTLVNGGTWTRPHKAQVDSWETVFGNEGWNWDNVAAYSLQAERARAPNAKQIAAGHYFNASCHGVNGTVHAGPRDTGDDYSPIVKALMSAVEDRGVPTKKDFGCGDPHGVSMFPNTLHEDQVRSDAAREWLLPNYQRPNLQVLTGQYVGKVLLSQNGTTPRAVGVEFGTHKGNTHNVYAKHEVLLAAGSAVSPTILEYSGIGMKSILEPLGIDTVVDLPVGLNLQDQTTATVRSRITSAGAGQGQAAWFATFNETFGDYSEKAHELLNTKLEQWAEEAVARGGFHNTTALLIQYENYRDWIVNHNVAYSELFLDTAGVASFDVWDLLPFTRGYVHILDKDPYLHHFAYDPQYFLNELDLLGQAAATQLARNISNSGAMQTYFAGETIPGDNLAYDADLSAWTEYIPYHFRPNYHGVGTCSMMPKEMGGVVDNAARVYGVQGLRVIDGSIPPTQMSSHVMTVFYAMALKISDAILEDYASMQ", "conditions": "with glucose oxidase; cited from earlier work"}}, "data": [{"molecule": "CC(C)CC(NC(=O)C(Cc1cnc[nH]1)NC(=O)C(NCC1(O)OCC(O)C(O)C1O)C(C)C)C(=O)NC(C(=O)NC(CSC1CC(=O)N(CC2CCC(C(=O)NCCc3c[n+]([Os]45([Cl])([n+]6ccccc6-c6cccc[n+]64)[n+]4ccccc4-c4cccc[n+]45)c[nH]3)CC2)C1=O)C(=O)O)C(C)O", "note": "(centres unmarked) [Os-SMCC-Alc]", "values": [{"measurement": "Inhibition with Antibody, PAB IS", "setting": "[1]", "result": "PAB IS (≦92%)"}, {"measurement": "Max inhibition from inhibition curve", "setting": "HbAlc antibodies", "result": 97, "unit": "%"}, {"measurement": "Reversal with BSA-Alc polyhaptan", "setting": "[2]", "result": "Yes with BSA-Alc"}, {"measurement": "Stability in solution", "setting": "[3]", "result": "Degrades in solution."}, {"measurement": "Inhibition with Antibody, PAB DE", "setting": "[4]", "result": "PAB DE (≦97%)"}, {"measurement": "Inhibition with Antibody, MAB", "setting": "[5]", "result": "MAB (≦50%)"}]}, {"molecule": "CC(C)CC(NC(=O)C(Cc1cnc[nH]1)NC(=O)C(NCC1(O)OCC(O)C(O)C1O)C(C)C)C(=O)NC(C(=O)NC(CCCCNC(=O)CCCC(=O)NCCc1c[n+]([Os]23([Cl])([n+]4ccccc4-c4cccc[n+]42)[n+]2ccccc2-c2cccc[n+]23)c[nH]1)C(=O)O)C(C)O", "note": "(centres unmarked) [Os-DSG-Alc]", "values": [{"measurement": "Antibody concentration at which maximum change of inhibition is reached, PAB IS", "setting": "[1]; conjugate fixed at 5 μM", "result": "~5", "unit": "µM"}, {"measurement": "Inhibition with Antibody, PAB IS", "setting": "[1]", "result": "PAB IS (≦91%)"}, {"measurement": "Reversal with BSA-Alc polyhaptan", "setting": "[2]", "result": "Yes with BSA-Alc"}, {"measurement": "Stability lyophilized and frozen", "setting": "[3]; lyophilized form and frozen in solution at -20 C (40 and 80 uM)", "result": "stable"}, {"measurement": "Amount of PAB DE antibody needed to get close to maximum inhibition, relative to PAB IS and MAB", "setting": "[4]; conjugate fixed at 5 μM", "result": "more than 3 times"}, {"measurement": "Inhibition with Antibody, PAB DE", "setting": "[4]", "result": "PAB DE (<87%)"}, {"measurement": "Antibody concentration at which maximum change of inhibition is reached, MAB", "setting": "[5]; conjugate fixed at 5 μM", "result": "~5", "unit": "µM"}, {"measurement": "Inhibition with Antibody, MAB", "setting": "[5]", "result": "MAB (<78%)"}]}, {"molecule": "CC(C)CC(NC(=O)C(Cc1cnc[nH]1)NC(=O)C(N)C(C)C)C(=O)NC(C(=O)NC(CCCCNC(=O)CCCCCN1C(=O)CC(SCC(=O)NCCc2c[n+]([Os]34([Cl])([n+]5ccccc5-c5cccc[n+]53)[n+]3ccccc3-c3cccc[n+]34)c[nH]2)C1=O)C(=O)O)C(C)O", "note": "(centres unmarked) [Os-SATA-Ao]", "values": [{"measurement": "Inhibition with Antibody, Sheep B<HbAo>", "setting": "Sheep B<HbAo> antibody", "result": "≤ 84", "unit": "%"}, {"measurement": "Stability in solution", "setting": "[3]", "result": "unstable in solution. Conjugate"}, {"measurement": "Inhibition with Antibody, Zymed rabbit antibodies", "setting": "Zymed rabbit antibodies", "result": "No"}, {"measurement": "Reversal with AoHB-peptide #1", "setting": "HbAo antibody", "result": "No with AoHB-"}]}, {"molecule": "CC(C)CC(NC(=O)C(Cc1cnc[nH]1)NC(=O)C(NCC1(O)OCC(O)C(O)C1O)C(C)C)C(=O)NC(C(=O)NC(CCCCNC(=O)CCCCCN1C(=O)CC(SCC(=O)NCCc2c[n+]([Os]34([Cl])([n+]5ccccc5-c5cccc[n+]53)[n+]3ccccc3-c3cccc[n+]34)c[nH]2)C1=O)C(=O)O)C(C)O", "note": "(centres unmarked) [Os-SATA-Alc]", "values": [{"measurement": "Inhibition with Antibody, PAB IS", "setting": "[1]", "result": "PAB IS (≦44%)"}, {"measurement": "Max inhibition from inhibition curve", "setting": "HbAlc antibodies", "result": 44, "unit": "%"}, {"measurement": "Reversal with BSA-Alc polyhaptan", "setting": "[2]", "result": "Yes with BSA-Alc"}, {"measurement": "Stability in solution", "setting": "[3]", "result": "Stability similar to SMCC."}]}, {"molecule": "Bis(2,2′-bipyridyl) imidazolyl chloroosmium [Os mediator]", "values": [{"measurement": "Mediation kinetics relative to ferricyanide", "setting": "glucose oxidase", "result": "about 500 times faster"}]}]}
